The values that follow come from article PMC7011996 (Journal of Enzyme Inhibition and Medicinal Chemistry, 2017).

Usually Ki stands for the equilibrium dissociation constant of an inhibitor or competing ligand from its target. Low values mean tighter binding, high ones weaker binding.

This experiment concerns the target T1, hCA XII (Homo sapiens, UniProt O43570).
T1 construct: gene CA12
Description: stopped-flow CO2 hydration assay. It counts as biochemical.

T1 sequence (O43570 25-354): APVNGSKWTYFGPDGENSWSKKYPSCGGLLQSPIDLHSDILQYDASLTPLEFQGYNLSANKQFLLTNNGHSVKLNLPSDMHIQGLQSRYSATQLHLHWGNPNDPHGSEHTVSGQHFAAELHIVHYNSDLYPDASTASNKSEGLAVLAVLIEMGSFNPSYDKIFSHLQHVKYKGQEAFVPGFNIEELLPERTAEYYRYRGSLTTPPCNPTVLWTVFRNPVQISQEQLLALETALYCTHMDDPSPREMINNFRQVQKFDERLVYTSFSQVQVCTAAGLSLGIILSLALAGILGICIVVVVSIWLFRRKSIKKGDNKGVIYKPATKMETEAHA

`NS(=O)(=O)c1ccc(CC[n+]2c(-c3ccccc3)cc(-c3ccccc3)cc2-c2ccccc2)cc1` [compound 2, 1-(4-sulfamoylphenyl-ethyl)-2,4,6-triphenylpyridinium perchlorate] showed a Ki of 12.5 nM.
